Activity calls are given as the source filed them. No cut-off for these calls is given here.
How the values were obtained:
[1] = Antioxidant activity assessed as inhibition of Meo-AMVN-derived peroxyl radicals-induced fucoxanthin consumption at 50 uM; type: functional
Mus musculus [2] = organism: Mus musculus; test: Antioxidant activity in 10% C57BL/6J mouse plasma assessed as inhibition of AAPH-derived peroxyl radicals-induced pyranine consumption at 50 uM; type: functional, cell-free
[3] = 1-octanol-water partition coefficient, log P of the compound; type: physicochemical
[4] = Plasma concentration in paediatric patients with congestive heart failure; type: ADME; conditions: human
Mus musculus [5] = organism: Mus musculus; test: Antioxidant activity in 10% C57BL/6J mouse plasma assessed as inhibition of NaOCl-induced lipid oxidation at 30 uM by DPPP-based fluorescence assay; type: functional, cell-free
[6] = Plasma concentration in Sprague-Dawley rat at 1 mg/kg bolus dose with continuous infusion of 1 mg/kg per hour measured for 24 hrs; type: ADME, organism-based; conditions: iv
Mus musculus [7] = organism: Mus musculus; test: Antioxidant activity in 10% C57BL/6J mouse plasma assessed as inhibition of NaOCl-induced lipid oxidation by DPPP-based fluorescence assay; type: functional, cell-free
[8] = target: T1, Polyunsaturated fatty acid lipoxygenase ALOX15 (Mus musculus, UniProt P39654); test: (§1) Inhibition of 15-LOX-mediated lipid oxidation in 10% C57BL/6J mouse plasma; type: cell-free
T1 sequence (P39654 whole entry): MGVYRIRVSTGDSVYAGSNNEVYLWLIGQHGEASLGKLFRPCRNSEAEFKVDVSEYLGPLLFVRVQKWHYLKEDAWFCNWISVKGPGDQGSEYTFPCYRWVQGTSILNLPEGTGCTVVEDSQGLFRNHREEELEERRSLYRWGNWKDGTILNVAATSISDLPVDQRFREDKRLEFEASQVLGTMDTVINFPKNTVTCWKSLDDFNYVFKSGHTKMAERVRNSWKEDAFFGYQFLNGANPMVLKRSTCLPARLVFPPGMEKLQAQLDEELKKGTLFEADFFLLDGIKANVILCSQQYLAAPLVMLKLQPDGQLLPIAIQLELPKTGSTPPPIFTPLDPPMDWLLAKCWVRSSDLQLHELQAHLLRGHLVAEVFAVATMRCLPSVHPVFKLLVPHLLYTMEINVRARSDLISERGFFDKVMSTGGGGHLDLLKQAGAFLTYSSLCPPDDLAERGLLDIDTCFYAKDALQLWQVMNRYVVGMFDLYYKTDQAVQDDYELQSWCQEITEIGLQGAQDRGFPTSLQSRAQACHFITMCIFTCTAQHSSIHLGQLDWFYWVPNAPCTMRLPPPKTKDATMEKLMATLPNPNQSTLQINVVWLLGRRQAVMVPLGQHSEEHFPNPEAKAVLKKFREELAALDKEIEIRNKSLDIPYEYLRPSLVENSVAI

[9] = target: T2, Polyunsaturated fatty acid lipoxygenase ALOX15 (Mus musculus) (UniProt P39654); test: as §1; type: cell-free
T2 sequence (whole entry): T1 sequence (P39654 whole entry)

Mus musculus [10] = organism: Mus musculus; test: Antioxidant activity in 10% C57BL/6J mouse plasma assessed as inhibition of SIN-1-derived peroxynitrite-induced lipid oxidation by DPPP-based fluorescence assay; type: functional, cell-free
[11] = Plasma concentration in pediatric kawasaki patient at 10 to 25 mg/kg, po by HPLC method; type: ADME, organism-based; conditions: human, in vivo
[12] = Drug level in plasma (unknown origin); type: ADME, cell-free
[13] = Plasma concentration in human at 400 mg, po; type: ADME, cell-free
[14] = 1-octanol/water, read-out: logP

Structure (SMILES): Cc1c(C)c2c(c(C)c1O)CC[C@@](C)(CCC[C@H](C)CCC[C@H](C)CCCC(C)C)O2
- inhibition [1]: Active
- inhibition (Mus musculus [2]): Active

Structure (SMILES): COc1ccccc1OCCNCC(O)COc1cccc2[nH]c3ccccc3c12 (centres undefined) [CARVEDILOL]
- logP ([3]; octanol/water): 1.04
- concentration [4]: 0.5 µM
- inhibition (Mus musculus [5]): Dose-dependent effect

Structure (SMILES): O=c1c2ccccc2[se]n1-c1ccccc1 [EBSELEN]
- logP [3, 14]: 1.25
- inhibition (Mus musculus [5]): Dose-dependent effect
- concentration at 24 h [6]: 5 to 20 µM

Structure (SMILES): CC1=NN(c2ccccc2)C(=O)C1 [EDARAVONE]
- logP [3, 14]: 0.86
- inhibition (Mus musculus [7]): Dose-dependent effect
- IC50 [8]: 34 µM
- inhibition [9]: Dose-dependent effect
- inhibition (Mus musculus [2]): Active
- inhibition (Mus musculus [10]): Dose-dependent effect

Structure (SMILES): CC(=O)CCCCn1c(=O)c2c(ncn2C)n(C)c1=O [PENTOXIFYLLINE]
- logP [3, 14]: 0.19
- inhibition (Mus musculus [5]): Dose-dependent effect
- concentration [11]: 5 to 20 µM

Structure (SMILES): CC(C)(Sc1cc(C(C)(C)C)c(O)c(C(C)(C)C)c1)Sc1cc(C(C)(C)C)c(O)c(C(C)(C)C)c1 [PROBUCOL]
- concentration [12]: 30 µM
- logP [3, 14]: 1.02
- inhibition (Mus musculus [7]): Dose-dependent effect
- inhibition (Mus musculus [2]): Active
- inhibition (Mus musculus [10]): Dose-dependent effect

Structure (SMILES): Cc1c(C)c2c(c(C)c1O)CCC(C)(COc1ccc(CC3SC(=O)NC3=O)cc1)O2 (centres undefined) [TROGLITAZONE]
- logP ([3]; octanol/water): 0.95
- concentration [13]: 5 to 20 µM
- inhibition [1]: Active
- IC50 [8]: 20 µM
- inhibition [9]: Dose-dependent effect
- inhibition (Mus musculus [5]): Dose-dependent effect
- inhibition (Mus musculus [2]): Active
